Key:
Assay type in all cases: cell-based, human
HCT-116 cells = test: SRB cytotoxicity assay, HCT-116; details: SRB assay, 72 h exposure, ± SEM
Protocol: Compounds in this study were tested against colorectal cancer cell line HCT-116, using sulforhodamine-B (SRB) assay. See Skehan, P.; Storeng, R.; Scudiero, D.; Monks, A.; McMahon, J.; Vistica, D.; Warren, J. T.; Bokesch, H.; Kenney, S.; Boyd, M. R., New colorimetric cytotoxicity assay for anticancer-drug screening. J Natl Cancer Inst 1990, 82 (13), 1107-12, incorporated herein by reference in its entirety. […] However, it was clear that compounds bearing hydrophobic aliphatic groups such as MOS-1505 and MOS-1512 are clearly favored in providing anticancer activities. […] The N-aryl substituents were less advantageous in both potency and solubility.
(§1) Different cell lines were originally purchased from American type culture collection (ATCC, Wesel, Germany) and grown in the tissue culture lab of the Egyptian company for production of vaccines, sera and drugs (Vacsera, Giza, Egypt). The cells were transferred to our laboratory and maintained in the appropriate media as following. HCT-116, CACO-2, and HT-29 (human colon cancer cell lines) were maintained in Roswell Park Memorial Institute medium (RPMI1640) (Invitrogen, Carlsbad, Calif.). The mouse skin fibroblasts (C-166) and Baby Hamster Kidney fibroblasts (BHK) were grown in Dulbecco Modified Eagle's medium (DMEM). Both media were supplemented with 1% of […] of streptomycin, 100 units/mL of penicillin and 10% of heat-inactivated fetal bovine serum (Invitrogen, Carlsbad, Calif.) in a humidified, 5% (v/v) CO2 atmosphere at 37° C.
(§2) The sulforhodamine B (SRB) assays were performed according to Skehan, P.; Storeng, R.; Scudiero, D.; Monks, A.; McMahon, J.; Vistica, D.; Warren, J. T.; Bokesch, H.; Kenney, S.; Boyd, M. R., New colorimetric cytotoxicity assay for anticancer-drug screening. J Natl Cancer Inst 1990, 82 (13), 1107-12, incorporated herein by reference in its entirety. Briefly, exponentially growing cells were trypsinized, counted and seeded at the appropriate densities (5000 cells/100 μL/well) into 96-well microtiter plates. Cells were incubated in a humidified atmosphere at 37° C. for 24 h. Then, the cells were exposed to different compounds at the desired concentrations, (0.01, 0.1, 1, 10, and 100 μM) or to 1% dimethyl sulfoxide (DMSO) for 72 h. At the end of the treatment period, the media were removed, and the cells were fixed with 10% trichloroacetic acid at 4° C. for 1 hr. Following, the cells were washed with tap water four times and incubated with SRB 0.4% for 30 min. Excess dye was removed by washing repeatedly with 1% (vol/vol) acetic acid. The protein-bound dye was dissolved in 10 mM Tris base solution for (optical density) OD determination at 510 nm using a SpectraMax plus Microplate Reader (Molecular Devices, CA). Cell viability was expressed relative to the untreated control cells.

CACO-2 cells = test: SRB cytotoxicity assay, CACO-2; details: ± SEM
Description: (§3) Based on the favorable pharmacologic and physicochemical properties of MOS-1512, it was selected as a new lead for the second subset of compounds (MOS-1812 to MOS-5112). The compounds in this series contained variable groups at R^1 and R^2 that were all tested against the three cancer cell lines (HCT-116, Caco-2 and HT-29).
as §1, §2

HT-29 cells = test: SRB cytotoxicity assay, HT-29; details: 72 h exposure, ± SEM
Description: as §3, §1, §2

[1] = Homo sapiens, Caco-2, 72 h exposure

CCCNC(=O)/C(=C/c1ccccc1)NC(=O)/C=C/c1cccs1 [Compound 2112, (Z)-3-phenyl-N-propyl-2-[(E)-3-(thien-2-yl)acrylamidolacry]amide]
IC50 (HCT-116 cells): 43 ± 1.5 µM
IC50 (CACO-2 cells; 72 h exposure): 27.8 ± 1.3 µM
IC50 (HT-29 cells; monolayer): 43.2 ± 2.3 µM

CCCNC(=O)/C(=C/c1ccc([N+](=O)[O-])cc1)NC(=O)/C=C/c1ccc(Cl)cc1 [Compound 4812, (Z)-2-[(E)-3-(4-chlorophenyl)acrylamido]-3-(4-nitrophenyl)-N-propylacrylamide]
IC50 (HCT-116 cells; Homo sapiens, HCT-116): > 100 µM
IC50 (CACO-2 cells; [1]): > 100 µM
IC50 (HT-29 cells; Homo sapiens, HT-29, monolayer): 36.9 ± 1.5 µM

CCNC(=O)/C(=C/c1ccccc1)NC(=O)/C=C/c1ccccc1 [Compound 1558, (Z)-2-[(E)-cinnamamido]-N-ethyl-3-phenylacrylamide]
IC50 (HCT-116 cells; Homo sapiens, HCT-116): > 100 µM

CCCNC(=O)/C(=C/c1cccnc1)NC(=O)/C=C/c1ccc(Cl)cc1 [Compound 4312, (Z)-2-[(E)-3-(4-chlorophenyl)acrylamido]-N-propyl-3-(pyridin-3-yl)acrylamide]
IC50 (HCT-116 cells; Homo sapiens, HCT-116): 49.4 ± 1.9 µM
IC50 (CACO-2 cells; [1]): 47.3 ± 1.9 µM
IC50 (HT-29 cells; Homo sapiens, HT-29, monolayer): 36 ± 1.7 µM

O=C(/C=C/c1ccccc1)N/C(=C\c1ccccc1)C(=O)Nc1ccc(F)cc1 [Compound 1528, (Z)-2-[(E)-cinnamamido]-N-(4-fluorophenyl)-3-phenylacrylamide]
IC50 (HCT-116 cells; Homo sapiens, HCT-116): 91.9 ± 4.4 µM

CCCNC(=O)/C(=C/c1c[nH]c2ccccc12)NC(=O)/C=C/c1ccc(C)cc1 [Compound 4012, (Z)-3-(1H-indol-3-yl)-N-propyl-2-[(E)-3-(p-tolyl)acrylamidolacry]amide]
IC50 (HCT-116 cells): 3.39 ± 0.1 µM
IC50 (CACO-2 cells; 72 h exposure): 2.3 ± 0.08 µM
IC50 (HT-29 cells; monolayer): 3.12 ± 0.06 µM

O=C(C=Cc1ccccc1)N/C(=C\c1ccccc1)C(=O)N1CCOCC1 [Compound 1536, N—[(Z)-3-morpholino-3-oxo-1-phenylprop-1-en-2-yl]cinnamamide]
IC50 (HCT-116 cells; Homo sapiens, HCT-116): > 100 µM

O=C(/C=C/c1ccccc1)N/C(=C\c1ccccc1)C(=O)NCCN1CCOCC1 [Compound 1531, (Z)-2-[(E)-cinnamamido]-N-(2-morpholinoethyl)-3-phenyl-acrylamide]
IC50 (HCT-116 cells; Homo sapiens, HCT-116): > 100 µM

CCCNC(=O)/C(=C/c1cccnc1)NC(=O)/C=C/c1ccc(OC)cc1 [Compound 4412, (Z)-2-[(E)-3-(4-methoxyphenyl)acrylamido]-N-propyl-3-(pyridin-3-yl)acrylamide]
IC50 (HCT-116 cells; Homo sapiens, HCT-116): 52.1 ± 1.6 µM
IC50 (CACO-2 cells; [1]): 38.1 ± 2 µM
IC50 (HT-29 cells; Homo sapiens, HT-29, monolayer): 72.7 ± 6.4 µM

CCCCNC(=O)/C(=C/c1ccccc1)NC(=O)/C=C/c1ccccc1 [Compound 1556, (Z)—N-(n-butyl)-2-[(E)-cinnamamido]-3-phenylacrylamide]
IC50 (HCT-116 cells; Homo sapiens, HCT-116): 67.2 ± 6.3 µM

O=C(C=Cc1ccccc1)N/C(=C\c1ccccc1)C(=O)N1CCCC1 [Compound 1555, N—[(Z)-3-(1-pyrrolidinyl)-3-oxo-1-phenylprop-1-en-2-yl]cinnamamide]
IC50 (HCT-116 cells; Homo sapiens, HCT-116): > 100 µM

CCC(C)NC(=O)/C(=C/c1ccccc1)NC(=O)C=Cc1ccccc1 (stereo not shown) [Compound 1557, (Z)—N-(sec-butyl)-2-cinnamamido-3-phenylacrylamide]
IC50 (HCT-116 cells; Homo sapiens, HCT-116): 52.4 ± 7.1 µM

O=C(/C=C/c1ccccc1)N/C(=C\c1ccccc1)C(=O)NCc1ccco1 [Compound 1530, (Z)-2-[(E)-cinnamamido]-N-(2-furylmethyl)-3-phenyl-acrylamide]
IC50 (HCT-116 cells; Homo sapiens, HCT-116): > 100 µM

N#Cc1cccc(NC(=O)/C(=C/c2ccccc2)NC(=O)/C=C/c2ccccc2)c1 [Compound 1513, (Z)-2-[(E)-cinnamamido]-N-(3-cyanophenyl)-3-phenyl-acrylamide]
IC50 (HCT-116 cells; Homo sapiens, HCT-116): > 100 µM

CN1CCN(NC(=O)/C(=C/c2ccccc2)NC(=O)/C=C/c2ccccc2)CC1 [Compound 1511, (Z)-2-[(E)-cinnamamido]-N-(4-methyl-1-piperazinyl)-3-phenyl-acrylamide]
IC50 (HCT-116 cells; Homo sapiens, HCT-116): > 100 µM

CCN(C)C(=O)/C(=C/c1ccccc1)NC(=O)C=Cc1ccccc1 [Compound 1559, (Z)-2-cinnamamido-N-ethyl-N-methyl-3-phenylacrylamide]
IC50 (HCT-116 cells; Homo sapiens, HCT-116): 28.8 ± 1 µM

NC(=O)/C(=C/c1ccccc1)NC(=O)/C=C/c1ccccc1 [Compound 1508, N—[(Z)-3-amino-3-oxo-1-phenylprop-1-en-2-yl]-(E)-cinnamamide]
IC50 (HCT-116 cells; Homo sapiens, HCT-116): > 100 µM

O=C/C=C/c1ccccc1 [tCA, trans-cinnamaldehyde, reference compound]
IC50 (HCT-116 cells; Homo sapiens, HCT-116): 12.4 ± 1.2 µM

Source: patent publication US11214556B1, “Method of treating colorectal cancer” (King Abdulaziz University, priority 2019, dated 2022)
